Laboratory results published in patent publication US8158794B2, “Hydroxyalkyl substituted imidazoquinoline compounds and methods” (3M Innovative Properties Company, priority 2005, dated 2012).

System: interferon (α) (IFN-α)
Assay: Cytokine induction in human cells: IFN-α secreted by PBMC (ELISA)
Format: cell-based
Conditions: 18 to 24 hours, lowest tested concentration inducing response over 20 pg/mL, median if more than one experiment, read-out: Minimum Effective Concentration (μM) IFN
From the text: (§1) An in vitro human blood cell system is used to assess cytokine induction. Activity is based on the measurement of interferon (α) and tumor necrosis factor (α) (IFN-α and TNF-α, respectively) secreted into culture media as described by Testerman et. al. in “Cytokine Induction by the Immunomodulators Imiquimod and S-27609”, Journal of Leukocyte Biology, 58, 365-372 (September, 1995).
(§2) Whole blood from healthy human donors is collected by venipuncture into vacutainer tubes or syringes containing EDTA. Peripheral blood mononuclear cells (PBMC) are separated from whole blood by density gradient centrifugation using HISTOPAQUE-1077 (Sigma, St. Louis, Mo.) or Ficoll-Paque Plus (Amersham Biosciences Piscataway, N.J.). Blood is diluted 1:1 with Dulbecco's Phosphate Buffered Saline (DPBS) or Hank's Balanced Salts Solution (HBSS). Alternately, whole blood is placed in Accuspin (Sigma) or LeucoSep (Greiner Bio-One, Inc., Longwood, Fla.) centrifuge frit tubes containing density gradient medium. The PBMC layer is collected and washed twice with DPBS or HBSS and re-suspended at 4×10^6 cells/mL in RPMI complete. The PBMC suspension is added to 96 well flat bottom sterile tissue culture plates containing an equal volume of RPMI complete media containing test compound.
(§3) The compounds are solubilized in dimethyl sulfoxide (DMSO). The DMSO concentration should not exceed a final concentration of 1% for addition to the culture wells. The compounds are generally tested at concentrations ranging from 30-0.014 μM. Controls include cell samples with media only, cell samples with DMSO only (no compound), and cell samples with reference compound.
(§4) The solution of test compound is added at 60 μM to the first well containing RPMI complete and serial 3 fold dilutions are made in the wells. The PBMC suspension is then added to the wells in an equal volume, bringing the test compound concentrations to the desired range (usually 30-0.014 μM). The final concentration of PBMC suspension is 2×10^6 cells/mL. The plates are covered with sterile plastic lids, mixed gently and then incubated for 18 to 24 hours at 37° C. in a 5% carbon dioxide atmosphere.
(§5) Following incubation the plates are centrifuged for 10 minutes at 1000 rpm (approximately 200×g) at 4° C. The cell-free culture supernatant is removed and transferred to sterile polypropylene tubes. Samples are maintained at −30 to −70° C. until analysis. The samples are analyzed for IFN-α by ELISA and for TNF-α by IGEN/BioVeris Assay.
IFN-α concentration is determined with a human multi-subtype colorimetric sandwich ELISA (Catalog Number 41105) from PBL Biomedical Laboratories, Piscataway, N.J. Results are expressed in pg/mL.
(§6) In total, the data output of the assay consists of concentration values of TNF-α and IFN-α(y-axis) as a function of compound concentration (x-axis).
Analysis of the data has two steps. First, the greater of the mean DMSO (DMSO control wells) or the experimental background (usually 20 pg/mL for IFN-α and 40 pg/mL for TNF-α) is subtracted from each reading. If any negative values result from background subtraction, the reading is reported as “*”, and is noted as not reliably detectable. In subsequent calculations and statistics, “*”, is treated as a zero. Second, all background subtracted values are multiplied by a single adjustment ratio to decrease experiment to experiment variability. The adjustment ratio is the area of the reference compound in the new experiment divided by the expected area of the reference compound based on the past 61 experiments (unadjusted readings). […] The reference compound used is 2-[4-amino-2-ethoxymethyl-6,7,8,9-tetrahydro-α,α-dimethyl-1H-imidazo[4,5-c]quinolin-1-yl]ethanol hydrate (U.S. Pat. No. 5,352,784; Example 91) and the expected area is the sum of the median dose values from the past 61 experiments.
The minimum effective concentration is calculated based on the background-subtracted, reference-adjusted results for a given experiment and compound. […]

Compound	minimal effective concentration
Nc1nc2cc(-c3cccnc3)ccc2c2c1nc(CO)n2CCCCNC(=O)C1CCCC1 [Example 42]	0.12 µM

System: tumor necrosis factor (α) (TNF-α)
Assay: Cytokine induction in human cells: TNF-α secreted by PBMC (ORIGEN M-Series immunoassay)
Format: cell-based
Conditions: 18 to 24 hours, lowest tested concentration inducing response over 40 pg/mL, median if more than one experiment, read-out: Minimum Effective Concentration (μM) TNF
From the text: as §1, §2, §3, §4, §5
The TNF-α concentration is determined by ORIGEN M-Series Immunoassay and read on an IGEN M-8 analyzer from BioVeris Corporation, formerly known as IGEN International, Gaithersburg, Md. The immunoassay uses a human TNF-α capture and detection antibody pair (Catalog Numbers AHC3419 and AHC3712) from Biosource International, Camarillo, Calif. Results are expressed in pg/mL.
as §6
Analysis of the data has two steps. First, the greater of the mean DMSO (DMSO control wells) or the experimental background (usually 20 pg/mL for IFN-α and 40 pg/mL for TNF-α) is subtracted from each reading. If any negative values result from background subtraction, the reading is reported as “*”, and is noted as not reliably detectable. In subsequent calculations and statistics, “*”, is treated as a zero. Second, all background subtracted values are multiplied by a single adjustment ratio to decrease experiment to experiment variability. The adjustment ratio is the area of the reference compound in the new experiment divided by the expected area of the reference compound based on the past 61 experiments (unadjusted readings). […]

Compound	minimal effective concentration
Nc1nc2cc(-c3cccnc3)ccc2c2c1nc(CO)n2CCCCNC(=O)C1CCCC1 [Example 42]	3.33 µM

System: not given
Assay: not given
Conditions: not given

Compound	melting point
CS(=O)(=O)NCCCCn1c(CO)nc2c(N)nc3cc(-c4cccnc4)ccc3c21 (hydrate or solvate) [Example 38]	188 to 190 °C
CCCNC(=O)NCCCCn1c(CO)nc2c(N)nc3cc(-c4cccnc4)ccc3c21 (hydrate or solvate) [Example 39]	206 to 209 °C
CCCC(=O)NCCCCn1c(CO)nc2c(N)nc3cc(-c4cccnc4)ccc3c21 (hydrate or solvate) [Example 40]	211 to 212 °C
Nc1nc2cc(-c3cccnc3)ccc2c2c1nc(CO)n2CCCCNC(=O)NC1CCCC1 (hydrate or solvate) [Example 41]	225 to 227 °C
CC(C)C(=O)NCCCCn1c(CO)nc2c(N)nc3cc(-c4cccnc4)ccc3c21 (hydrate or solvate) [Example 43]	225 to 227 °C
Cc1cccc(-c2ccc3c(c2)nc(N)c2nc(CCO)n(CCCN4CCCC4=O)c23)c1 (hydrate or solvate) [Example 47]	218 to 221 °C
Nc1nc2cc(-c3ccccc3O)ccc2c2c1nc(CCO)n2CCCN1CCCC1=O (hydrate or solvate) [Example 48]	> 250 °C
Nc1nc2cc(-c3cncc(CO)c3)ccc2c2c1nc(CO)n2CC1CCCCC1 (hydrate or solvate) [Example 49]	166 to 170 °C
CC(C)(O)Cn1c(CO)nc2c(N)nc3cc(-c4cccnc4)ccc3c21 (hydrate or solvate) [Example 51]	141 to 143 °C
Nc1nc2cc(-c3cccnc3)ccc2c2c1nc(CO)n2CC1CCOCC1 [Example 32, [4-Amino-7-pyridin-3-yl-1-(tetrahydro-2H-pyran-4-ylmethyl)-1H-imidazo[4,5-c]quinolin-2-yl]methanol]	260 to 262 °C
CS(=O)(=O)N1CCC(Cn2c(CO)nc3c(N)nc4cc(-c5cccnc5)ccc4c32)CC1 [Example 34]	196 to 198 °C
CC(C)NC(=O)N1CCC(Cn2c(CO)nc3c(N)nc4cc(-c5cccnc5)ccc4c32)CC1 [Example 36]	182 to 184 °C
Nc1nc2cc(-c3cccnc3)ccc2c2c1nc(CO)n2CCCCNC(=O)C1CCCC1 [Example 42]	241 to 242 °C
Nc1nc2cc(-c3cccc(C(=O)N4CCCC4)c3)ccc2c2c1nc(CO)n2CC1CCOCC1 [Example 139, [4-Amino-7-[3-(pyrrolidin-1-ylcarbonyl)phenyl]-1-(tetrahydro-2H-pyran-4-ylmethyl)-1H-imidazo[4,5-c]quinolin-2-yl]methanol]	281 to 284 °C
